One data set relates to BalbC mice. The data set is described as follows: Maximum Tolerable Dose - LD/50 single dose oral administration. It is filed as in vivo. To be noted: single oral dose 2000 mg/kg in SEDDS vehicle, 5 BalbC mice, observation 5 days. As to the method:
To ascertain initial information regarding the toxicity and tolerability of compound 27.
• A single administration of orally formulated maximum dose, 2000 mg/kg was given to 5 BalbC mice. Observation was carried out for 5 days.
• Compound 27 was weighed out and diluted into the same SEDDS vehicle used for S1. The SEDDS vehicle is composed of the following components: • Labrasol (30%) • PEG-400 (20%) • Kolliphore RH-40 (30%) • Labrafil (20%) • The concentration of 27 in SEDDS was 200 mg/mL which would translate to a 2000 mg/kg oral dose for a 20 g mouse administered 200 ul. Oral administration was administered to 5 mice and the animals were carefully observed for signs of toxicity in the first hour then sporadically over 5 days.

Data set [1] has as its system melanoma B16F10 xenografted in BALB/c mice. Put plainly: B16F10 xenografted mice: tumor volume and histopathology. It is filed as in vivo. As to the method:
B16F10 cells (25×10^5 cells/mouse) were injected subcutaneously into the right flank of female BALB/c mice aged 7-8 weeks. Mice (n=10) were divided into 2 groups and given daily oral suspension of 27 (treated group), or vehicle (control group) for 15 days. The treated group was orally given a suspension of 27 at 900 mg/kg. The control group was given the vehicle suspension (SEDDS). Measurements performed on days 0, 9 and 15 only. Tissues (plasma, tumor, liver, spleen and brain) were harvested within 3 hours of final treatment. Biopsies of tumor tissues for histopathology were obtained subsequently.
Tissue samples from the tumors of both treated and control mice were fixed with formalin. Histopathological examination of these tumor samples was performed by Lore Laboratory, CA, USA.

The subject of the next data set is Bladder HT_1376. The data set is described as follows: CellTiter Glo cell viability assay. It is filed as cell-based. As to conditions: Homo sapiens, HT-1376, 72 h; 3 Days of treatment; 18 2-fold dilutions 5-0.00003 μM. As to the method:
(§1) 1.7*10^3 cells/well were seeded in quadruplicates in 96-well plate after plating. Drugs were added at 5 μM and 2-fold dilutions over 18 concentrations (0.000038146-5 […] range) to generate a dose-response curve. Cell growth was assessed on day 1, 3 and 5 after drug treatments using the CellTiter Glo Luminescence Cell Viability Assay (Promega) according to manufacturer's protocol. Thermo Scientific Varioskan LUX Multimode Microplate instrument was used for plate reading. Data are expressed as mean luminescence (arbitrary units) ±S.D.
(§2) Cell Viability Assays were employed to determine the concentration of Compound 1 (KYN-001) and analogues where the response is reduced by half. For each treatment of cancer cells, 1, 2, 5, 10 and 20 μM solutions of compounds were applied. GraphPad Prism 7 software was used to fit dose response curves. Relative Luminescence Units were plotted against the log values of the doses used and the nonlinear regression model was used for data analysis.
(§3) The protocol for cell proliferation was optimized for Compound 8 (KYN-119) to enable a more accurate assessment of its low IC50 value. In this protocol, 18 dosages (2 fold dilutions ranging from 0.000038146 to 5 μM) were applied to cells seeded in 96-well plates, and Luminescence was measured after 1, 3 and 5 days upon treatments.
On the technique in general: In ATP-based viability assays light output follows the ATP content of the culture.

The next data set concerns Liver JHH-5. The data set is described as follows: CellTiter Glo cell viability assay. As to conditions: Homo sapiens, 72 h; 3 Days of treatment; 18 2-fold dilutions 5-0.00003 μM. It is filed as cell-based. The procedure:
as §1, §2, §3

The subject of a further data set is Pancreatic AsPC-1n. Put plainly: CellTiter Glo cell viability assay. In kind it is cell-based. As to conditions: Homo sapiens, 72 h; 3 Days of treatment; 18 2-fold dilutions 5-0.00003 μM. As to the method:
as §1, §2, §3

The next data set has as its system Liver Huh7. The data set is described as follows: CellTiter Glo cell viability assay. In kind it is cell-based, human. As to conditions: for pIC50: Homo sapiens, Huh-7, 72 h, 3 Days of treatment, 18 2-fold dilutions 5-0.00003 μM. In short, it runs like this:
(§4)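 Cells were seeded at 1.7*10^3 cells/well in quadruplicate and treated with 18 two-fold dilutions from 5 μM (0.000038146–5 μM), or with 1, 2, 5, 10 and 20 μM. Viability was read by CellTiter Glo luminescence on days 1, 3 and 5, and IC50 came from nonlinear regression of RLU against log dose.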

The next data set relates to Tongue SCC-9. Put plainly: CellTiter Glo cell viability assay. In kind it is cell-based, human. As to conditions: for pIC50: Homo sapiens, SCC-9, 72 h, 3 Days of treatment, 18 2-fold dilutions 5-0.00003 μM. An outline of the steps: as §4
The next data set relates to Tongue SCC-25. The data set is described as follows: CellTiter Glo cell viability assay. In kind it is cell-based, human. To be noted: for pIC50: Homo sapiens, SCC-25, 72 h, 3 Days of treatment, 18 2-fold dilutions 5-0.00003 μM. An outline of the steps:
as §4

A further data set has as its system Lung A549. The data set is described as follows: CellTiter Glo cell viability assay. In kind it is cell-based, human. To be noted: for pIC50: Homo sapiens, A549, 72 h, 3 Days of treatment, 18 2-fold dilutions 5-0.00003 μM. An outline of the steps: as §4
Another data set relates to Bladder SW780. Put plainly: CellTiter Glo cell viability assay. In kind it is cell-based, human. To be noted: for pIC50: Homo sapiens, SW780, 72 h, 3 Days of treatment, 18 2-fold dilutions 5-0.00003 μM. In short, it runs like this:
as §4

The subject of a further data set is Breast MDA-MB-231. Put plainly: CellTiter Glo cell viability assay. As to conditions: for pIC50: Homo sapiens. It is filed as cell-based, human. In short, it runs like this: as §4
In the next data set the test system is Leiomyosarcoma SK-LMS-1. The data set is described as follows: CellTiter Glo cell viability assay. It is filed as cell-based, human. To be noted: for pIC50: Homo sapiens, SK-LMS-1, 72 h, 3 Days of treatment, 18 2-fold dilutions 5-0.00003 μM. In short, it runs like this:
as §4

In another data set the test system is Osteosarcomas KHOS_312H. The data set is described as follows: CellTiter Glo cell viability assay. In kind it is cell-based, human. As to conditions: for pIC50: Homo sapiens, 72 h, 3 Days of treatment, 18 2-fold dilutions 5-0.00003 μM. An outline of the steps:
as §4

A further data set relates to Pancreatic CAPAN-1. Put plainly: CellTiter Glo cell viability assay. In kind it is cell-based, human. To be noted: for pIC50: Homo sapiens, CAPAN-1, 72 h, 18 2-fold dilutions 5-0.00003 μM. In short, it runs like this: as §4
The subject of a further data set is Lung NCI-H661. The data set is described as follows: CellTiter Glo cell viability assay. To be noted: for pIC50: Homo sapiens, NCI-H661, 72 h, 3 Days of treatment, 18 2-fold dilutions 5-0.00003 μM. It is filed as cell-based, human. In short, it runs like this: as §4
In a further data set the test system is Kidney CRL-1611. The data set is described as follows: CellTiter Glo cell viability assay. It is filed as cell-based. To be noted: Homo sapiens, 72 h. As to the method: as §1, §2, §3
The mark [2] stands for this setting: 900 mg/kg oral daily, individual treated mice.
The mark [3] stands for this setting: IC50 of 1 [KYN-001] vs 8 [KYN-119], 3 Days.
Where [4] appears, read: MDA-MB-231, 72 h, 3 Days of treatment, 18 2-fold dilutions 5-0.00003 μM, read-out: Average IC50.
[5] abbreviates: MDA-MB-231, 120 h, Day 5 upon drug treatment, 10 dosages 0.0001-20 μM (Compound 8: 18 dosages 0.000038146 to 5 μM), read-out: IC50.
Setting [6] is: 3 Days of treatment, read-out: Average IC50.
[7] abbreviates: Table 4: 3 Days of treatment, Average (1, 8) or single Exp A-D, read-out: IC50.

pIC50: −log10 of the molar value. Where “and” joins values, the source holds several entries; their conditions need not be identical. Equal values may be shown once. Entries after “also recorded” stand apart in the source; their conditions may differ. Read-outs that look alike come from different tables or passages of the source.

One may read the pIC50 as the IC50 on a negative log10 scale, so that one unit is a factor of ten.

`COc1cc(/C=C/c2cc(O)cc(OC)c2CC=C(C)C)ccc1NC=O` [Compound 27, (E)-N-(4-(5-hydroxy-3-methoxy-2-(3-methylbut-2-en-1-yl)styryl)-2-methoxyphenyl)formamide]: in the data set on BalbC mice, the “Toxicity and tolerability, survival and signs of distress” value was “All five mice survived and showed no immediate signs of distress; also recorded: high degree of oral tolerability”. In addition, the “Histochemical analysis of tumor samples, in words” value in data set [1] (900 mg/kg oral daily for 15 days) is reported as “tumors were subsequently diminished after day 10; also recorded: lysed and/or underwent necrosis”. In [1] (setting [2]), the “Tumor volume Day 0” value was 109.29 mm^3 and 52.18 mm^3 and 58.45 mm^3 and 82.97 mm^3 and 66.82 mm^3; the “Tumor volume Day 9” value is 132.59 mm^3 and 178.68 mm^3 and 37.38 mm^3 and 60.93 mm^3 and 47.3 mm^3; the “Tumor volume Day 15” value is 5.31 mm^3 and 19.93 mm^3 and 35.03 mm^3 and 42.35 mm^3 and 39.44 mm^3.
Turning to `CCOc1cc(O)cc(/C=C/c2ccc(O)c(OC)c2)c1CC=C(C)C` [Compound 8, (E)-3-Ethoxy-5-(4-hydroxy-3-methoxystyryl)-4-(3-methylbut-2-en-1-yl)phenol], the pIC50 in the data set with Bladder HT_1376 was 6.21; with Liver JHH-5, 5.36; in the data set with Pancreatic AsPC-1n, 5.70; with Liver Huh7, 7.69; in the data set on Tongue SCC-9, 7.12; with Tongue SCC-25, 6.56. The pIC50 in the data set with Lung A549 is 7.51; in the data set with Bladder SW780, 6.66; with Breast MDA-MB-231 (setting [4]), 8.07; in the data set on Breast MDA-MB-231 (setting [5]), roughly 11.60; in the data set with Leiomyosarcoma SK-LMS-1, 7.76; in the data set on Osteosarcomas KHOS_312H, 7.44. Also, the pIC50 is 5.33 in the data set on Pancreatic CAPAN-1 (setting [6]), 5.61 with Pancreatic CAPAN-1 (setting [7]) and 7.94 with Lung NCI-H661. Moreover, the “Fold IC50” value with Liver Huh7 (setting [3]) is 3.8; with Tongue SCC-9 (setting [3]) it was 2.4; with Tongue SCC-25 (setting [3]), 2.7; with Lung A549 (setting [3]) it was 5.3; in the data set with Bladder SW780 (setting [3]), 3.3; in the data set with Breast MDA-MB-231 (setting [3]), 3.8. For the same compound, the “Fold IC50” value in the data set on Leiomyosarcoma SK-LMS-1 (setting [3]) was 3.8; with Osteosarcomas KHOS_312H (setting [3]) it was 9.7; with Pancreatic CAPAN-1 (setting [3]), 1.3; in the data set on Lung NCI-H661 (setting [3]), 3.2.
As for `COc1cc(/C=C/c2cc(O)cc(OC)c2CC=C(C)C)ccc1O` [Compound 1, (E)-3-(4-hydroxy-3-methoxystyryl)-5-methoxy-4-(3-methylbut-2-en-1-yl)phenol], the negative logarithm of the IC50 (pIC50) was 7.03 in the data set with Kidney CRL-1611 (3 Days of treatment, 18 2-fold dilutions 5-0.00003 μM, read-out: Average IC50); 7.03 with Kidney CRL-1611 (Day 3 upon drug treatment, 10 dosages 0.0001-20 μM, read-out: IC50); 7.10 with Liver Huh7; 6.74 in the data set with Tongue SCC-9; 6.13 in the data set with Tongue SCC-25; 6.79 in the data set with Lung A549. Besides, the negative logarithm of the IC50 (pIC50) with Bladder SW780 is 6.15; in the data set on Breast MDA-MB-231 (setting [4]) it was 7.49; in the data set with Breast MDA-MB-231 (MDA-MB-231, 72 h, Day 3 upon drug treatment, 10 dosages 0.0001-20 μM, read-out: IC50), 7.53; in the data set with Breast MDA-MB-231 (setting [5]) it was 7.24; with Leiomyosarcoma SK-LMS-1, 7.18; with Osteosarcomas KHOS_312H it was 6.45. Besides, the pIC50 with Pancreatic CAPAN-1 (setting [6]) was 5.21; in the data set on Pancreatic CAPAN-1 (setting [7]), 5.84; with Lung NCI-H661, 7.44.
